Data on 14 compounds can be found in PMC4494750 (Journal of medicinal chemistry, 2011).

The test system of data set [1] is P. falciparum pansensitive D6. The data set is described as follows: In vitro antimalarial activity: P. falciparum growth inhibition. The format is cell-based. Particulars: Plasmodium falciparum, D6, 72 h, read-out: IC50 (nM) D6.
In another data set the test system is P. berghei. Particulars: subcutaneous injection, mice; without cure or at doses resulting in more toxic deaths than cures; ref 7a, 7e, 7b, 16; cited from earlier work.
The test system of another data set is P. cynomolgi. Particulars: oral treatment, even at toxic doses; ref 7c; cited from earlier work.
For a further data set, the system named is P. yoelii-Kenya. The experiment in a line: In vivo antimalarial efficacy: P. yoelii murine patent infection. Also on record: species or system P. yoelii in CF-1 mice. To be noted: for weight loss or toxicity: 5 mg/kg/day by gavage.
The mark [2] stands for this setting: 25 mg/kg/day by gavage, parasite-free for 28 days.

In general, IC50 refers to the concentration needed to halve the response being measured.

Where a name gives a salt, the structure may show the parent alone.

As for `CCN(CC)CCCC(C)Nc1ccnc2cc(Cl)ccc12` (stereo not shown) [CQ, chloroquine], the IC50 in data set [1] amounted to 11 nM.
Turning to `CCCCCC1=C/C(=C/c2[nH]c(-c3ccc[nH]3)cc2OC)N=C1C` [Compound 1, prodigiosin], the effect on survival result in the data set with P. berghei is “extend survival”. Moreover, the antimalarial activity entry with P. cynomolgi is reported as “completely ineffective”.
Take `CCCCCCCCCCCC1=N/C(=C\c2[nH]c(-c3ccc[nH]3)cc2OC)C=C1` [Compound 2, undecylprodiginine]: in the data set with P. berghei, the effect on survival entry is listed as “extend survival”.
Take `CCC1CCCCCCCCC2=N/C(=C\c3[nH]c(-c4ccc[nH]4)cc3OC)C1=C2` (stereo not shown) [Compound 3, metacycloprodiginine]: the effect on survival result in the data set on P. berghei was “extend survival”. For the same compound, in the data set with P. yoelii-Kenya (100 mg/kg/day by gavage), the parasite clearance entry is “complete” and the weight loss result is “temporary weight loss”. In addition, the mice cured entry in the data set on P. yoelii-Kenya (100 mg/kg/day by gavage, parasite-free for 28 days) is given as “three of four”. In the data set with P. yoelii-Kenya (initial proof-of-principle testing, 25 mg/kg/day by gavage, 54.1% in controls), this compound had a parasitemia of 0.28%.
As to `COC1=CC(c2ccc[nH]2)=N/C1=C\c1[nH]ccc1Cc1ccc(Cl)cc1` [Compound 41], in the data set on P. yoelii-Kenya, the “weight loss or toxicity” value is listed as “without any evidence of weight loss or toxicity”.
Take `CCCCCCCCc1cc(CCC)c(/C=C2\N=C(c3ccc[nH]3)C=C2OC)[nH]1` [Compound 48, 4′-methoxy-5′-(5-octyl-3-propyl-1H-pyrrol-2-ylmethylene)-1H,5′H-[2,2′]bipyrrolyl, hydrochloride]: the “weight loss or toxicity” value in the data set with P. yoelii-Kenya is “without any evidence of weight loss or toxicity”.
With `CCCc1cc(CCC2CCCCC2)c(/C=C2\N=C(c3ccc[nH]3)C=C2OC)[nH]1` [Compound 49], in the data set on P. yoelii-Kenya, the “weight loss or toxicity” value is “without any evidence of weight loss or toxicity”.
Regarding `CCCc1cc(Cc2ccc(Cl)cc2)c(/C=C2\N=C(c3ccc[nH]3)C=C2OC)[nH]1` [Compound 57], in the data set with P. yoelii-Kenya, the “weight loss or toxicity” value is on record as “without any evidence of weight loss or toxicity”.
Take `CCCCCCc1cc(Cc2ccc(Cl)cc2)c(/C=C2\N=C(c3ccc[nH]3)C=C2OC)[nH]1` [Compound 58]: the “weight loss or toxicity” value in the data set with P. yoelii-Kenya is “without any evidence of weight loss or toxicity”. Further, the “cures in treated group” value in the data set on P. yoelii-Kenya (setting [2]) is recorded as “one cure”.
As to `CCCCCCCCc1cc(Cc2ccc(Cl)cc2)c(/C=C2\N=C(c3ccc[nH]3)C=C2OC)[nH]1` [Compound 60], the “weight loss or toxicity” value in the data set on P. yoelii-Kenya is “without any evidence of weight loss or toxicity”. The “cures in treated group” value in the data set on P. yoelii-Kenya (setting [2]) is “one cure”.
`COC1=CC(c2ccc[nH]2)=N/C1=C\c1[nH]c(Cc2ccc(Cl)cc2)cc1Cc1ccc(Cl)cc1` [Compound 66]: the “weight loss or toxicity” value in the data set on P. yoelii-Kenya was “without any evidence of weight loss or toxicity”. The “weight loss or clinical overt toxicity” value in the data set with P. yoelii-Kenya (25 mg/kg/day by gavage) is “without any evident weight loss or clinical overt toxicity”.
Turning to `CCCCCCCc1cc(/C=C2\N=C(c3ccc[nH]3)C=C2OC)[nH]c1C` [Compound 76, heptylprodigiosin], the effect on survival entry in the data set with P. berghei is recorded as “extend survival”.
As for `CCCC[C@H]1CCCCCCc2[nH]c(/C=C3\N=CC(c4ccc[nH]4)=C3OC)cc21` [Compound 77, butylcycloheptylprodiginine], the effect on survival result with P. berghei was “extend survival”.
As to cyclononylprodiginine [Compound 78], in the data set with P. berghei, the effect on survival result was “extend survival”.
